Values quoted from earlier work as cited in patent US20180271949A1, “THERAPEUTIC TREATMENT FOR NEUROTROPHIC KERATOPATHY” (priority 2017, published 2018).

Assays:
[1] = tested on: corneal epithelium wound healing; settings: with substance-P; several pre-clinical studies; Nishida 2009
decubitus ulcers = settings: topical; Van Ort 1976
[2] = tested on: experimentally-induced superficial skin wounds; settings: topical; diabetic and non-diabetic individuals; Greenway 1999
corneal abrasions = settings: topical, diabetic rats
[3] = tested on: sub-basal plexus corneal nerves; settings: topical; diabetic mice; Chen 2013
[4] = tested on: cultured sheets of corneal epithelial cells; settings: Shanley 2004
corneal ulcers = settings: systemic administration; humans; Aynsley 1945

Row | Substance | promotion of corneal epithelium wound healing [1] | healing of decubitus ulcers (decubitus ulcers) | healing of experimentally-induced superficial skin wounds [2] | corneal sensation (corneal abrasions; Zagon 2007) | wound healing after corneal abrasions (corneal abrasions; Zagon 2007, Klocek 2009) | loss of sub-basal plexus corneal nerves [3] | cell migration and closure of artificial wounds [4] | healing of corneal ulcers (corneal ulcers)
1 | IGF-1: Insulin-like growth factor-1, modulator of corneal wound healing | act synergistically with substance-P | – | – | – | – | – | – | –
2 | insulin: insulin, topical, systemic or added in vitro, as used in cited literature studies | – | improve healing | improve healing | improves corneal sensation | improves wound healing | slow the loss | promoted cell migration and closure of artificial wounds | improved healing
